From patent US7022710B2, “A1 adenosine receptor antagonists” (CV Therapeutics, Inc., priority 2003, dated 2006)

Assays:
human A2B AdoR = biological target: T1, human A2B AdoR (Homo sapiens, UniProt P29275); experiment: Adenosine receptor radioligand binding assay, A2B; details: competition with 3H-ZM241385, HEK-A2B cell membranes
T1 construct: expressed in transfected cells; host or cells: HEK-293 (HEK-A2B), membrane preparation
T1 sequence (P29275 1-332): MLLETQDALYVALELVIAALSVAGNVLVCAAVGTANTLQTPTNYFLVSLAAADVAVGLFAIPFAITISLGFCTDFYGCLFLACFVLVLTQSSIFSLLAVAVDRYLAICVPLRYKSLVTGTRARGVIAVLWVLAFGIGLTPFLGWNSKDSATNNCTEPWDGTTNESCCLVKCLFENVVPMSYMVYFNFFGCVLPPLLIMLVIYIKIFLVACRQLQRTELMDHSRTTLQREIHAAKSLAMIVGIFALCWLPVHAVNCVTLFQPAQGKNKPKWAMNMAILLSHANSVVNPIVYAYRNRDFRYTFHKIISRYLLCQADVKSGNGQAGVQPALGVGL
Experimental: (§1) The cDNAs for human A1, A2A, A2B or A3 AdoRs were prepared by RT-PCR from total RNA of human cells or tissues and sequenced on both strands. The expression vector containing each of these cDNAs and a second vector containing a neomycin or puromycin-resistance gene were introduced to HEK-293 or CHO cells by Lipofectin-Plus (Life Technology). Colonies were selected by growing transfected cells in the presence of neomycin or puromycin. Stably transfected cells were maintained in Dulbecco's modified Eagle's medium (DMEM) or F-12 medium with 10% fetal bovine serum, 100 μg/ml penicillin, 100 μg/ml streptomycin and appropriate concentrations of neomycin or puromycin. These stably transfected cells were referred to as HEK-“AdoR” or CHO-“AdoR” depending on the receptors that they express. The cell lines used routinely were CHO-A1, HEK-A2A, HEK-A2B.and CHO-A3 cells. In addition, hamster DDT1 MF-2 cells that express endogenous A1 AdoRs were also used to determine the binding activities of compounds for A1 AdoRs.
(§2) Monolayers of transfected cells or DDT1 MF-2 were washed with phosphate buffered saline (PBS) and harvested in a buffer containing 10 mM HEPES (pH 7.4), 10 mM EDTA and protease inhibitors. The cells were homogenized in polytron for 1 minute at setting 4 and centrifuged at 29000 g for 15 minutes at 4° C. The cell pellets were washed with a buffer containing 10 mM HEPES (pH7.4), 1 mM EDTA and protease inhibitors, and were resuspended in the same buffer supplemented with 10% sucrose. Frozen aliquots were kept at −80° C.
(§3) The affinities of compounds for A1, A2A, A2B or A3 AdoRs were determined in competition studies using radioligands such as ^3H-CPX (A1 antagonist), or ^3H-CCPA (A1 agonist), ^3H-ZM241385 (A2A antagonist) or ^3H-CGS21680 (A2A agonist), ^3H-ZM241385 (A2B antagonist) or ^125I-AB-MECA (A3 agonist) and membranes of corresponding cells. For example, to determine the affinity for A1 AdoRs, the competition assays were started by mixing 0.5–1 nM ^3H-CPX with various concentrations of test compounds and 25–100 μg membrane proteins of CHO-A1 or DDT1 MF-2 in TE buffer (50 mM Tris and 1 mM EDTA) supplemented with 1 U/ml adenosine deaminase. The assays were incubated for 60–90 minutes, stopped by filtration onto GF/B filter plates using Packard Harvester and washed four times with ice-cold TM buffer (10 mM Tris, 1 mM MgCl2, pH 7.4). The amounts of radioligands that bound to the GF/B filter plates were determined by scintillation counting. Nonspecific binding was determined in the presence of 1–10 μM of cold ligands. Bmax and KD values were calculated using GraphPad software.

human A1 AdoR = biological target: T2, human A1 AdoR (UniProt P30542); experiment: Adenosine receptor radioligand binding assay, A1; details: competition with 0.5–1 nM 3H-CPX, membranes of CHO-A1 or DDT1 MF-2 (hamster, endogenous A1)
T2 sequence (P30542 1-326): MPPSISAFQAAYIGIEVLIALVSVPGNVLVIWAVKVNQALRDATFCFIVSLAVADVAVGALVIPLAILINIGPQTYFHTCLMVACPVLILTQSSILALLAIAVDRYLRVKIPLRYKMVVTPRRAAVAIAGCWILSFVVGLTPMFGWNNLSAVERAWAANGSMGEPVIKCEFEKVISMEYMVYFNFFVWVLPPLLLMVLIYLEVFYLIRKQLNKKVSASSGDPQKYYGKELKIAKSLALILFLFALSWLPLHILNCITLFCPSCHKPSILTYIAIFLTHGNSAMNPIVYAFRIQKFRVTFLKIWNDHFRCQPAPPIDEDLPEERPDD
Experimental: as §1, §2, §3

| Molecule | Ki (human A2B AdoR) | Ki (human A1 AdoR) |
| --- | --- | --- |
| (6-amino-9-propyl-8-pyrazolylpurin-2-yl)[2-(3-fluorophenyl)ethyl]amine | 160 nM | 28 nM |
| (6-amino-9-propyl-8-pyrazolylpurin-2-yl)[2-(2-chlorophenyl)ethyl]amine | 3640 nM | 382 nM |
| {[3-(aminomethyl)phenyl]methyl}(6-amino-9-propyl-8-pyrazolylpurin-2-yl)amine | 7000 nM | 408 nM |
| (6-amino-9-propyl-8-pyrazolylpurin-2-yl)[2-(4-fluorophenyl)ethyl]amine | 2300 nM | 66 nM |
| (4-{[(6-amino-9-propyl-8-pyrazolylpurin-2-yl)amino]methyl}phenyl)methan-1-ol | 7000 nM | 1790 nM |
| (6-amino-9-propyl-8-pyrazolylpurin-2-yl)(2-phenylethyl)amine | 500 nM | 113 nM |
| CCn1c(-n2cccn2)nc2c(N)nc(NCc3ccccc3)nc21 [(6-amino-9-ethyl-8-pyrazolylpurin-2-yl)benzylamine] | 1000 nM | 15 nM |
| (6-amino-9-propyl-8-pyrazolylpurin-2-yl)[2-(4-chlorophenyl)ethyl]amine | 5000 nM | 1090 nM |
| (6-amino-9-propyl-8-pyrazolylpurin-2-yl)[2-(2,5-dimethoxyphenyl)ethyl]amine | 1680 nM | 182 nM |
